# Results published in patent US9517985B2, “Method for producing butanol using extractive fermentation” (Butamax Advanced Biofuels LLC, priority 2013, dated 2016).
# Like-named read-outs stand apart in the source and are kept apart here.
# Legend:
# isobutanologen [1] = test: Secondary screen for solvent biocompatibility (shake flask; Cellometer viability, glucose, isobutanol); conditions: 30° C.; for % Viability: relative to oleyl alcohol
# [2] = as above; conditions: yeast (isobutanologen)
# isobutanologen [3] = test: Automated primary screen for solvent biocompatibility (96 well plate, propidium iodide dead-cell fluorescence); format: cell-based
# isobutanologen [4] = test: Tertiary screen for solvent biocompatibility (growth of isobutanologen in rich media with solvent, time course); format: cell-based; conditions: for isobutanol production: FIG. 11, versus oleyl alcohol control; for glucose consumption: FIG. 12, versus oleyl alcohol control; for ethanol consumption: FIG. 13, versus oleyl alcohol control
# isobutanologen [5] = system: isobutanologen
# isobutanologen [6] = test: Three step screening process, overall biocompatibility call
# [7] = system: modified Escherichia coli strain; conditions: oleyl alcohol as the organic extractant, Example 6 of US 2009/0305370; cited from earlier work
# [8] = propidium iodide signal, 1 h exposure, 1:1 aq:org, room temperature
Compound,Glucose (isobutanologen [1]; 4 Hours) [g/L],iBuOH (isobutanologen [1]; 4 Hours) [g/L],Glucose (isobutanologen [1]; 25 Hours) [g/L],iBuOH (isobutanologen [1]; 25 Hours) [g/L],viability at 4 h [2] [%],viability at 25 h [2] [%],Glucose (isobutanologen [1]; 30 Hours) [g/L],iBuOH (isobutanologen [1]; 30 Hours) [g/L],viability at 30 h [2] [%],also measured
"CCCCOCCOCCCC [1,2-dibutoxyethane]",11.9,0.4,10.7,0.4,63,8,–,–,–,–
"CC(C)CC(O)CC(C)C [2,6-dimethylheptan-4-ol]",12.1,0.0,11.8,0.0,42,8,–,–,–,–
CCCCC(CC)COC(C)=O (stereo not drawn) [2-ethyl hexyl acetate],10.5,0.6,7.1,1.2,–,–,–,–,–,"% Dead (isobutanologen [3]; [8]): 3%; % Viability (isobutanologen [1]; 4 Hours, 1:1): 96%; % Viability (isobutanologen [1]; 25 Hours, 1:1): 42%"
"CCCCC(CC)CO (stereo not drawn) [2-ethyl-1-hexanol, reference compound]",13.1,0.0,13.7,0.0,14,6,16.8,0.0,47,viability at 5 h [2]: 58%
CCCCC(CC)COCCO (stereo not drawn) [2-ethylhexylglycol ether],–,–,–,–,–,–,–,–,–,% Dead (isobutanologen [3]; [8]): 79%
CC(C)CC(=O)CC(C)C [2.6-dimethylheptan-4-one],10.9,0.6,7.9,0.9,–,–,–,–,–,"% Dead (isobutanologen [3]; [8]): 5%; % Viability (isobutanologen [1]; 4 Hours, 1:1): 78%; % Viability (isobutanologen [1]; 25 Hours, 1:1): 26%"
Cc1cccc2cccnc12 [8-methylquinoline],–,–,–,–,–,–,17.5,0.0,47,–
CCOC(C)(C)C [ETBE],12.5,0.0,12.8,0.0,–,–,–,–,–,"% Dead (isobutanologen [3]; [8]): 6%; % Viability (isobutanologen [1]; 4 Hours, 1:1): 16%; % Viability (isobutanologen [1]; 25 Hours, 1:1): 4%"
COC(C)(C)C [MTBE],12.7,0.0,12.9,0.2,–,–,–,–,–,% Dead (isobutanologen [3]): 19%
C1CCC2CCCCC2C1 (stereo not drawn) [decalin],11.2,0.4,10.3,0.5,76,36,–,–,–,–
CCCCCCOCCCCCC [di-n-hexyl ether],8.1,1.1,0.9,1.9,106,62,–,–,–,–
CCCCCCCCOCCCCCCCC [di-n-octyl ether],–,–,–,–,–,–,0.0,1.9,99,viability at 5 h [2]: 99%; isobutanol production (isobutanologen [4]): comparable to oleyl alcohol; glucose consumption (isobutanologen [4]): comparable to oleyl alcohol; ethanol consumption (isobutanologen [4]): comparable to oleyl alcohol
CCCCCCCCCCCC=O [dodecanal],–,–,–,–,–,–,0.0,0.0,62,viability at 5 h [2]: 78%; biocompatibility (isobutanologen [5]): toxic
CCCCCCCCCCCC [dodecane],–,–,–,–,–,–,0.0,1.9,99,viability at 5 h [2]: 99%; isobutanol production (isobutanologen [4]): comparable to oleyl alcohol; glucose consumption (isobutanologen [4]): comparable to oleyl alcohol; ethanol consumption (isobutanologen [4]): comparable to oleyl alcohol; biocompatibility (isobutanologen [6]): biocompatible
CCCCCCCCCCCCO [dodecanol],–,–,–,–,–,–,–,–,–,biocompatibility (isobutanologen [6]): toxic
CC(C)CC(C)(C)C [isooctane],10.8,0.5,8.5,0.8,90,31,–,–,–,–
Cc1cc(C)cc(C)c1 [mesitylene],12.5,0.0,12.1,0.1,64,17,–,–,–,–
CCCCCCCCCCCC(=O)OC [methyl laurate],3.9,2.1,0.0,1.6,110,94,–,–,–,isobutanol production (isobutanologen [4]): comparable to oleyl alcohol; glucose consumption (isobutanologen [4]): comparable to oleyl alcohol; ethanol consumption (isobutanologen [4]): comparable to oleyl alcohol
CCCCOC(C)=O [n-butyl acetate],–,–,–,–,–,–,16.6,0.0,35,viability at 5 h [2]: 46%
CCCCOC(=O)CCC [n-butyl n-butyrate],12.4,0.0,11.7,0.0,48,7,–,–,–,–
CCCCCCCCCC [n-decane],5.8,1.6,0.0,2.3,107,54,–,–,–,–
CCCCCCOC(C)=O [n-hexyl acetate],12.8,0.0,13.0,0.0,18,3,–,–,–,–
CCCCCCCCCCC [n-undecane],–,–,–,–,–,–,0.0,1.9,100,viability at 5 h [2]: 98%; isobutanol production (isobutanologen [4]): comparable to oleyl alcohol; glucose consumption (isobutanologen [4]): comparable to oleyl alcohol; ethanol consumption (isobutanologen [4]): comparable to oleyl alcohol
"CCCCCCCC/C=C\CCCCCCCCO [oleyl alcohol, reference compound]",5.7,1.8,0.0,2.6,100,100,0.0,2.2,100,effective titer for isobutanol [7]: 37 g/L; viability at 5 h [2]: 100%
primary amyl acetate mixed isomers,–,–,–,–,–,–,–,–,–,% Dead (isobutanologen [3]; [8]): 104%
trimethylnonanol,–,–,–,–,–,–,0.0,2.1,–,% Dead (isobutanologen [3]; [8]): 3%; % Viability (isobutanologen [1]; 5 Hours): 99%; % Viability (isobutanologen [1]; 30 Hours): 98%; biocompatibility (isobutanologen [5]): biocompatible; isobutanol production (isobutanologen [4]): comparable to oleyl alcohol; glucose consumption (isobutanologen [4]): comparable to oleyl alcohol; ethanol consumption (isobutanologen [4]): comparable to oleyl alcohol
